{"source": "patent US20080032918A1", "about": "“Mast cell-derived renin” (Cornell Research Foundation, Inc., priority 2003, published 2008)", "key": {"[1]": {"biological_target": "T1, mast-cell-derived renin (Homo sapiens, UniProt P00797)", "T1 construct": "endogenous in cells; host or cells: HMC-1 human mastocytoma cell line, degranulated with compound 48/80", "T1 sequence (P00797 67-406)": "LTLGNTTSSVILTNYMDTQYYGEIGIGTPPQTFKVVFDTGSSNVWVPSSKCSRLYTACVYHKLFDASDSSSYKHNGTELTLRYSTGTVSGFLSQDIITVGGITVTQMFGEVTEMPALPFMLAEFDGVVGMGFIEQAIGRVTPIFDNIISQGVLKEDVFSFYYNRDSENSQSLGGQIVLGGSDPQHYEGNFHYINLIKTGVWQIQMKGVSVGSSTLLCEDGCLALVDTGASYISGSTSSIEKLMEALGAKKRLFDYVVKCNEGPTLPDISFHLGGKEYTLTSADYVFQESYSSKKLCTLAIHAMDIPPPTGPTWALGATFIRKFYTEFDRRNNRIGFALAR", "test": "renin activity (ANG I formed, RIA) of HMC-1 cell releasate incubated with human angiotensinogen", "assay_type": "biochemical", "details": "BILA2157 100 nM", "method": "Renin activity: Pooled confluent flasks of HMC-1 cells, or individual wells of HMC-1 cells, were pelleted and resuspended in HEPES buffer (pH 5.7, 1 mM EDTA) containing the mast-cell degranulating agent compound 48/80 (100 μg/ml or 20 μg/ml; Sigma). After 30 min, cells were spun down and the renin-containing supernatant was incubated with increasing concentrations of human angiotensinogen (Sigma). Renin activity (ANG I formed) was then determined using a GammaCoat Plasma Renin Activity 1251 Radioimmunoassay kit (DiaSorin, Mass.). The selective renin inhibitor BILA2157 was from Boehringer Ingelheim.\nThe cell releasate was incubated with increasing concentrations of angiotensinogen and then assayed for ANG I formed (i.e. renin activity) by RIA. A concentration-response curve for ANG I formation as a function of angiotensinogen concentration was generated on the HMC-1 releasate. The amount of ANG I formed increased with angiotensinogen concentration. […]\nFIG. 4F illustrates that mast-cell-derived renin can be synthesized in mast cells. Releasates were analyzed from the same population of HMC-1 exposed to compound 48/80 (20 μg/ml) 48 hours apart, and analyzed for BILA2157-sensitive renin activity."}, "[2]": {"system": "guinea-pig hearts", "test": "ischemia-reperfusion in guinea pig hearts ex vivo (Langendorff)", "details": "20-min global ischemia, 45-min reperfusion, lodoxamide 10 μM; for ventricular fibrillation during reperfusion: BILA2157 100 nM; for renin overflow into coronary effluent on reperfusion: BILA 2157 100 nM", "method": "Ischemia-reperfusion in guinea pig hearts ex vivo: Guinea-pig hearts will be perfused for 30 min prior to ischemia. Inamura et al., Circ. Res. 78: 475-481 (1996). Normothermic 20-min global ischemia will be induced by complete cessation of coronary perfusion, followed by 45-min reperfusion. Coronary effluent will be assayed for renin activity and NE.\nGuinea-pig hearts were perfused ex vivo at constant pressure in a Langendorff apparatus and subjected to 20-min. stop-flow global ischemia, followed by 45-min. reperfusion (Hatta, E., R. Maruyama, S. J. Marshall, M. Imamura, and R. Levi. Bradykinin promotes ischemic norepinephrine release in guinea pig and human hearts. J. Pharmacol. Exp. Ther. 288: 919-927 (1999)). Surface ECG and coronary flow were continuously monitored; the coronary effluent was assayed for renin activity (i.e., ANG I generated as described herein). There was no detectable renin in the coronary effluent prior to ischemia. With reperfusion, there was significant renin overflow into the coronary effluent accompanied by ventricular fibrillation (VF) (FIG. 12).\nTraces in the left panels were recorded at the end of the equilibration period prior to ischemia, showing normal sinus rhythm."}, "[3]": {"biological_target": "T2, renin (Homo sapiens, UniProt P00797)", "T2 sequence (P00797 67-406)": "T1 sequence (P00797 67-406)", "details": "specific renin inhibitor; cited from earlier work"}, "[4]": {"system": "cardiac mast cells", "test": "renin in coronary effluent of normoxic Langendorff-perfused hearts challenged with 48/80", "design": "species or system guinea pig", "details": "lodoxamide 10 μM or BILA 2157 100 nM prior to 48/80", "method": "Renin was measured in the coronary effluent of normoxic Langendorff-perfused guinea-pig hearts, ex vivo. […] When hearts were perfused with the mast-cell stabilizer lodoxamide (FIG. 9B) or the renin inhibitor BILA2157 prior to 48/80 challenge (FIGS. 9A and B), renin overflow was abolished."}, "[5]": {"system": "isolated normoxic guinea pig hearts", "test": "chronotropic response and norepinephrine overflow in normoxic isolated hearts challenged with 48/80", "details": "BILA 2157 100 nM, lodoxamide 30 μM", "excerpt": "These findings indicate that cardiac mast cells are capable of releasing active renin, which then leads to local formation of ANG II causing norepinephrine exocytosis."}, "[6]": {"system": "cardiac sympathetic nerve endings", "test": "norepinephrine release from isolated cardiac sympathetic nerve endings incubated with angiotensinogen", "assay_type": "cell-based, guinea pig", "details": "nerve endings incubated with BILA2157 10 nM, enalaprilat 30 nM or EXP 3174 10 nM", "excerpt": "Preparation ofguinea-pig sympathetic nerve endings: Cardiac sympathetic nerve endings were isolated from guinea-pig hearts as previously described (Seyedi et al., J Pharmacol Exp Ther 290: 656-663, 1999; Seyedi et al., Circ. Res. 81: 774-784, 1997). Spontaneously beating hearts were isolated as previously described by the inventors (Hatta et al., J. Pharmacol. Exp. Ther. 288: 919-927, 1999; Park et al., Circ. Res. 71: 992-1001, 1992). Briefly, male Hartley guinea pigs were anesthetized with CO2 vapor and then exsanguinated. Hearts were perfused through the aorta for 15 min at constant pressure with Ringer's solution at 37° C. (Park et al., Circ. Res. 71: 992-1001, 1992) to exclude blood from the coronary circulation. Hearts were minced in 0.32 M sucrose containing 1 mM EGTA. The minced tissue was then digested with 75 mg collagenase per 10 ml HBS per gm for 1 hr at 37° C. After low speed centrifugation the resulting pellet were suspended in 10 volumes of 0.32 M sucrose and homogenized with a Teflon/glass homogenizer. The homogenate was centrifuged at 650g for 10 min, the pellet was re-homogenized and the homogenate was centrifuged again. The pellet containing cellular debris was discarded, the supernatants from the last two spins were combined, the pooled supernatant was equally subdivided into 4 to 8 tubes and re-centrifuged for 20 min at 20,000g at 4° C. This pellet contains cardiac sympathetic nerve endings. The pellet was resuspended either in HEPES-buffered saline (HBS; 500 μl, normoxic conditions) or in glucose-free HBS, which contained the reducing agent sodium dithionite (500 μl, ischemic conditions), and incubated in the absence or presence of angiotensinogen (1 hr) or other agents for 20 min at 37° C. prior to ischemia (see below). Each suspension was used only once as an independent sample.\nNorepinephrine assay: Coronary effluent and synaptosome supernatant will be assayed for NE by HPLC with electrochemical detection (ESA). […]"}}, "note": "pIC50: −log10 of the molar value. Entries after “also recorded” stand apart in the source; their conditions may differ.", "data": [{"smiles": "CC(C)C[C@H](O)[C@H](O)[C@H](CC1CCCCC1)NC(=O)[C@@H](CC(=O)N(CC(=O)N(C)CCc1ccccn1)CC1CCCCC1)Cc1csc(N)n1", "note": "[BILA2157]", "values": [{"measurement": "share of ANG I activity due to BILA2157-sensitive renin", "setting": "[1]; 240 nM angiotensinogen, initially and 48 hours after degranulation with 48/80", "result": "about 70%"}, {"measurement": "share of total ANG I formed that originates from renin (BILA2157-sensitive)", "setting": "[1]; increasing angiotensinogen concentrations", "result": "~70", "unit": "%"}, {"measurement": "ventricular fibrillation during reperfusion", "setting": "[2]", "result": "no ventricular fibrillation; also recorded: ventricular fibrillation did not occur"}, {"measurement": "ventricular fibrillation during reperfusion", "setting": "[2]; listed as BILA 2157", "result": "prevent ventricular fibrillation; also recorded: essentially no ventricular fibrillation"}, {"measurement": "renin overflow into coronary effluent on reperfusion", "setting": "[2]", "result": "abrogated"}, {"measurement": "renin overflow into coronary effluent on reperfusion", "setting": "[2]; listed as BILA 2157", "result": "prevented renin release"}, {"measurement": "pIC50", "setting": "[3]", "result": 9.00}, {"measurement": "renin overflow into coronary effluent after 48/80 challenge", "setting": "[4]", "result": "abolished"}, {"measurement": "renin overflow into coronary effluent after 48/80 challenge", "setting": "[4]; listed as BILA 2157", "result": "markedly diminished"}, {"measurement": "chronotropic response to 48/80", "setting": "[5]", "result": "markedly abbreviated"}, {"measurement": "chronotropic response to 48/80", "setting": "[5]; listed as BILA 2157", "result": "diminishes the chronotropic response"}, {"measurement": "effect on 48/80 potentiation of norepinephrine release", "setting": "[6]", "result": "abolished"}]}]}
